Experimental data as given in patent US10961539B2, “Promoter system inducing expression by 3-hydroxypropionic acid and method for biological production of 3-hydroxypropionic acid using same” (NOROO IC Co., Ltd., priority 2015, dated 2021).

Experiments:
[1] = test system: 3hpdh, 3hibdhIV, and mmsadh; test: Inducer specificity of gene expression (FIGS. 4 and 5); type: cell-based, Pseudomonas denitrificans
3hibdhIV = test: RT-PCR relative mRNA level of 3-HP catabolic gene
[2] = test system: C4-LysR protein and promoter DNA fragments; test: Electrophoretic mobility shift assay (EMSA) of C4-LysR protein with promoter DNA fragments; type: binding, Pseudomonas denitrificans; details: 25 mM 3-HP

O=C(O)CCO [3-HP, 3-hydroxypropionic acid]
inducer of expression of mmsadh and 3hibdhIV ([1]; FIG. 4): acts as an inducer
amplification of the genes 3hpdh, 3hibdhIV and mmsadh by the compound ([1]; FIGS. 4 and 5): amplified
fold increase of 3hibdhIV mRNA expression (3hibdhIV; cells exposed to 25 mmol/L 3-HP vs no 3-HP, M9 medium, rpoD reference gene): 146 fold
3hibdhIV expression on addition of 3-HP (3hibdhIV; strain with C4 LysR gene removed): did not increase the expression
change of affinity of C4-LysR protein to DNA fragment in the presence of 3-HP ([2]; fragment F1): barely changed affinity
change of affinity of C4-LysR protein to DNA fragment in the presence of 3-HP ([2]; fragment F2): slightly decreased affinity
change of affinity of C4-LysR protein to DNA fragment in the presence of 3-HP ([2]; fragment F12 (O1 and O2 operators)): increased affinity
